Values after ≈ are worked out from the molar mass of the structure shown.
Conditions: for aqueous solubility: pH 6.8

Compound	MDR1-MDCK efflux ratio	intrinsic clearance, human liver microsomes	intrinsic clearance, rat liver microsomes	aqueous solubility	fraction unbound, human plasma	fraction unbound, rat plasma
Cc1ccc(NC(=O)[C@H]2COc3ccccc3O2)nc1	–	11.2 L/h/kg	79.3 L/h/kg	0.0314 mg/mL (≈ 116 µM)	–	–
c1cc(-c2noc(CN3CCOCC3)n2)ccn1	0.732	≤ 0.284 L/h/kg	1.79 L/h/kg	–	–	–
Cc1cccc(CNC(=O)Cn2c(=O)oc3cccnc32)c1	–	≤ 0.284 L/h/kg	≤ 0.64 L/h/kg	–	–	–
O=C(Nc1nccs1)[C@@H]1C[C@@H]2CCCC[C@@H]2N1C(=O)c1ccccc1	6.31	2.2 L/h/kg	29.9 L/h/kg	–	–	–
O=C(Cc1csc(-c2ccc(F)cc2)n1)N1CCC(n2c(=O)[nH]c3ccccc32)CC1	–	20.8 L/h/kg	169 L/h/kg	–	–	–
c1cc2c(N3CCNCC3)nc(-c3ccnc(NC4CCCCC4)c3)cc2cn1	26.5	4.12 L/h/kg	15.6 L/h/kg	0.0399 mg/mL (≈ 103 µM)	–	–
O=c1[nH]nc(CCCN2CCOCC2)n1-c1cccc(Cl)c1	25.6	≤ 0.284 L/h/kg	1.69 L/h/kg	0.0404 mg/mL (≈ 125 µM)	–	–
CCC(=O)Nc1cccc(C(=O)N2CCN(C)Cc3ccccc32)c1	41.5	–	–	0.0002 mg/mL (≈ 0.593 µM)	–	–
CC(=O)N1CCC(Nc2ncnc3cc(-c4ccc(Br)cc4)sc23)CC1	5.91	0.384 L/h/kg	2.59 L/h/kg	0.0102 mg/mL (≈ 23.6 µM)	–	–
Cc1cc(C(=O)N(C)C2CCC2)n2nccc2n1	0.719	≤ 0.284 L/h/kg	≤ 0.64 L/h/kg	0.0909 mg/mL (≈ 372 µM)	–	–
Cc1cc(Nc2ccc(F)cn2)cc(C2CCN(C(=O)COc3ccccc3)C2)n1 (stereo not given)	15.5	6.37 L/h/kg	39.8 L/h/kg	–	–	–
O=S(=O)(NCc1n[nH]c2c1CCCCC2)c1ccc(OC(F)F)cc1	7.25	21.6 L/h/kg	105 L/h/kg	–	–	–
O=C(CNC(=O)c1ccc(Cl)cc1)Nc1nc(-c2ccc3ccccc3c2)cs1	–	–	–	0.0004 mg/mL (≈ 0.948 µM)	–	–

Further lines, results first:

MDR1-MDCK efflux ratio	intrinsic clearance, human liver microsomes	intrinsic clearance, rat liver microsomes	aqueous solubility	fraction unbound, human plasma	fraction unbound, rat plasma	Compound
0.672	≤ 0.284 L/h/kg	4.65 L/h/kg	0.0447 mg/mL (≈ 162 µM)	–	–	CN(c1ncnc2c1cnn2CCO)C1CCCCC1
12.8	≤ 0.284 L/h/kg	≤ 0.64 L/h/kg	0.0446 mg/mL (≈ 167 µM)	–	–	CCc1nnc(NC(=O)Cc2c(C)noc2C)s1
0.624	0.925 L/h/kg	2.93 L/h/kg	0.00141 mg/mL (≈ 4.18 µM)	–	–	Cc1sc(-c2ccccn2)nc1-c1ccc(NC(=O)C(C)C)cc1
1.51	0.483 L/h/kg	62.1 L/h/kg	0.0341 mg/mL (≈ 96.4 µM)	–	–	COCCc1nc(-c2cnc(C3CC3)nc2)n(Cc2ccc(F)cc2)n1
–	–	–	0.0231 mg/mL (≈ 113 µM)	–	–	N#CCCn1nc(C(F)(F)F)cc1O
52.5	0.302 L/h/kg	21.2 L/h/kg	0.0609 mg/mL (≈ 161 µM)	–	–	COCCNC(=O)CN1CCN(c2nccn2-c2cccc(Cl)c2)CC1
0.525	5.2 L/h/kg	129 L/h/kg	–	–	–	CCCc1nnc(N2CCC3(CCCC3)C2)s1
1.45	1.82 L/h/kg	4.45 L/h/kg	–	0.0278	0.0237	Cc1nc(Nc2nccs2)cc(C2CN(c3ncccn3)C2)n1
1.52	≤ 0.284 L/h/kg	≤ 0.64 L/h/kg	0.0333 mg/mL (≈ 122 µM)	–	–	CON(C)C(=O)c1cc(C)ccc1NS(C)(=O)=O
0.547	1.52 L/h/kg	11.5 L/h/kg	0.0154 mg/mL (≈ 49.4 µM)	–	–	COc1ccc(C(=O)Nc2ccc3oc(C)nc3c2)c(OC)c1
11.1	2.87 L/h/kg	57.1 L/h/kg	0.0464 mg/mL (≈ 141 µM)	–	–	CN(Cc1nnc(C2CC2)n1C)C(=O)C1C2CC3CC(C2)CC1C3 (stereo not given)
0.661	≤ 0.284 L/h/kg	10.3 L/h/kg	–	–	–	CCc1cccc(C)c1NC(=O)c1ccc(C)o1
1.98	1.36 L/h/kg	10.2 L/h/kg	–	–	–	COc1ccccc1-c1cc(C(C)(C)C)nc(-c2ncccn2)n1
1.45	2.79 L/h/kg	15.3 L/h/kg	0.0332 mg/mL (≈ 94.5 µM)	–	–	COc1ccc(C)cc1-n1ccc(C(=O)Nc2c3c(nn2C)CCC3)n1
9.53	0.631 L/h/kg	4.24 L/h/kg	0.0362 mg/mL (≈ 107 µM)	0.0736	0.0485	COc1nn(C)cc1C(=O)Nc1cccc(-c2cnc3n2CCC3)c1
